Measured values reported in patent US20150203526A1, “NOVEL 19-NOR-STEROIDS AND THEIR USE FOR TREATING PROGESTERONE- DEPENDENT CONDITIONS” (REPROS THERAPEUTICS INC., priority 2010, published 2015).
Values after ≈ are worked out from the molar mass of the structure shown. Read-outs that look alike come from different tables or passages of the source.

Assays:
[1] = Thermodynamic solubility (solid shaken in solvent at 37° C., filtrate by LC/UV); assay type: physicochemical; conditions: thermodynamic from solid
Experimental: Briefly, 300 ul of solvent (ethanol, 0.1 M HCl or distilled H2O) were added to 14-16 mg of the solid compound (5 parallel measurements per sample, per solvent, mean concentrations 93-107 mM). The mixtures were shaken at 37° C. for 24 and 72 hours. Concentrations of the filtrates were determined by liquid chromatography with UV detector (LC/UV) with 3-point calibration.
Crystal form was checked by X-ray powder diffraction (XRPD) after recovering the slurry at 24 and 72 hours. […] The exact cause of this observed phenomenon is not known.

[2] = as above; assay type: physicochemical; conditions: water and 1.0 M HCl, 24 vs 72 hours
[3] = Pharmacokinetic studies on clinical trial subjects after oral CDB-4124; assay type: in vivo, human; conditions: oral CDB-4124, 12.5 mg vs 50 mg
Experimental: The maximum concentrations of CDB-4124 and its mono-demethylated metabolite (CDB-4453) for the 12.5 mg dose were 25% of the 50 mg dose. All liver toxicities resolved in those women that returned for safety follow-ups, including those subjects that developed liver-associated serious adverse effects (SAEs).
Pharmacokinetic studies performed on participating subjects detected a high Cmax and a Tmax at 1-2 hours following administration. […] Metabolism of CDB-4124 by the liver provides the opportunity for liver damage and greatly reduces the concentration of the antiprogestin before it reaches the systemic circulation. Thus, alternative routes of administration of antiprogestins that avoid first pass metabolism such as, without limitation, intravenous, intramuscular, and sublingual, should allow antiprogestins to be absorbed directly into the systemic circulation and thereby provide a method for treating progestone-dependent conditions while avoiding liver toxicity. Administration routes which avoid first pass metabolism may also require less drug per dose to achieve the same therapeutic benefit relative to oral administration.

[4] = Oral vs vaginal pharmacokinetics in beagles (25 mg); assay type: in vivo
Experimental: FIG. 1 illustrates a comparison of the Cmax (peak serum concentration) and area under the curve (AUC) following oral and vaginal administration of CDB-4124 or CDB-4453 at a 25 mg dose in beagles.
Beagles were administered 25 mg of CDB-4124 or CDB-4453 (the monodemethylated metabolite of CDB-4124) formulated as either a micronized powder or a vaginal suppository. […] Moreover, systemic exposure of the drug is much lower when administered locally (compare AUC for CDB-4124 and CDB-4453 when administered vaginally vs. orally).

[5] = organic solvent or mixture, ethanol, read-out: Thermodynamic solubility, Ethanol, Mean
[6] = simulated gastric fluid, 0.1M HCl, read-out: Thermodynamic solubility, 0.1M HCl, Mean
[7] = distilled water, read-out: Thermodynamic solubility, Distilled water, Mean
[8] = distilled water, read-out: Thermodynamic solubility, distilled water, Mean

In the case of `COCC(=O)[C@@]1(OC(C)=O)CC[C@H]2[C@@H]3CCC4=CC(=O)CCC4=C3[C@@H](c3ccc(C(C)=O)cc3)C[C@@]21C` [CDB-4239, 21-methoxy-17α-acetoxy-11β-(4-acetylphenyl)-19-norpregna-4,9-diene-3,20-dione], the solubility thermodynamic at 24 h [1, 5] is reported as greater than 98200 µM, the solubility thermodynamic at 72 h [1, 5] is reported as greater than 100000 µM and the solubility thermodynamic at 24 h [1, 6] is reported as 140 µM (≈ 70.8 µg/mL). For the same molecule, the solubility thermodynamic at 72 h [1, 6] was 110 µM (≈ 55.6 µg/mL), the solubility thermodynamic at 24 h [1, 7] was 141 µM (≈ 70.9 µg/mL) and the solubility thermodynamic at 72 h [1, 8] was 54.8 µM (≈ 27.7 µg/mL). For the same molecule, the “Tendency of water and HCl solubilities between 24 and 72 hours” value [2] was “decreasing tendency”.
With `CNc1ccc([C@H]2C[C@@]3(C)[C@@H](CC[C@]3(OC(C)=O)C(=O)COC)[C@@H]3CCC4=CC(=O)CCC4=C32)cc1` [CDB-4453] the “Maximum concentration for the 12.5 mg dose relative to the 50 mg dose” value [3] was 25%, the “Metabolism after peak plasma concentration” value ([4]; oral micronized powder) was “rapidly metabolized” and the Metabolism ([4]; vaginal suppository) was “metabolized slowly”. The “Peak plasma concentrations (Cmax)” value ([4]; vaginal suppository) was “relatively low” and the “Systemic exposure (AUC), local vs oral” value ([4]; vaginal vs oral) was “much lower”.
With `CC(=O)O[C@]1(C(C)=O)CC[C@H]2[C@@H]3CCC4=CC(=O)CCC4=C3[C@@H](c3ccc(C(C)=O)cc3)C[C@@]21C` [REP-4510, 17α-acetoxy-11β-(4-acetylphenyl)-19-norpregna-4,9-dien-3,20-dione] the solubility thermodynamic at 24 h [1, 5] was 3300 µM (≈ 1570 µg/mL), the solubility thermodynamic at 72 h [1, 5] was 2900 µM (≈ 1380 µg/mL) and the solubility thermodynamic at 24 h [1, 6] was 0.5 µM (≈ 0.237 µg/mL). For the same molecule, the solubility thermodynamic at 72 h [1, 6] was 0.45 µM (≈ 0.214 µg/mL), the solubility thermodynamic at 24 h [1, 7] was 0.52 µM (≈ 0.247 µg/mL) and the solubility thermodynamic at 72 h [1, 8] was 0.44 µM (≈ 0.209 µg/mL).
